# According to patent US20230095926A1, “PARASITE CONTROL IN RUMINANTS” (Intervet Inc., priority 2019, published 2023):
# How the values were obtained:
# [1] = system: biting/chewing lice (Bovicola bovis); test: Biting lice efficacy study in cattle, natural infestation, single subcutaneous injection; format: in vivo; settings: 1 mg/kg s.c.
# Description: (§1) This study determined the efficacy (via reductions in total lice counts) of fluralaner in an injectable suspension formulation against natural infestations of cattle sucking (Haematopinus eurysternus, Linognathus vituli) and biting/chewing lice (Bovicola bovis) when applied at a single dose to young, lice infested cattle. Treatment efficacy was determined by whole body lice counts post treatment and comparison of treated and untreated (placebo) group mean lice counts. The naturally acquired louse infestations consisted of 2 species of sucking lice (Haematopinus eurysternus and Linognathus vituli) and the biting louse Bovicola bovis. Each animal was examined in a cattle crush prior to being selected from the parent mob to ensure that more than 30 sucking lice (combined total of both sucking lice species) were present. Fluralaner at a dose level of 1.0 mg/kg bw and Control Product were administered to cattle by subcutaneous injection. The numbers of live adults and live nymphs for each species of lice on each animal were counted at 7-day intervals starting with pre-treatment counts on Day −1 and post-treatment on Days 7, 14, 21, 28, 35, 42, 49 and 56.
# [2] = system: cattle sucking lice (Haematopinus eurysternus, Linognathus vituli); test: Sucking lice efficacy study in cattle, natural infestation, single subcutaneous injection; format: in vivo; settings: 1 mg/kg s.c.
# Description: as §1
# [3] = system: sheep body lice (Bovicola ovis), diazinon resistant; test: Long wool lice efficacy study, single subcutaneous dose, Merino sheep with 3 months wool growth; format: in vivo
# Description: In this study the efficacy of fluralaner when administered once subcutaneously at doses of 1 and 2 mg/kg body weight against sheep body lice (Bovicola ovis) infestation on Merino sheep with 3 months wool growth was evaluated.
# Fluralaner was administered to sheep in Groups 2 and 3 on Day 0 at 1 and 2 mg fluralaner/kg bodyweight respectively. Group 1 was left untreated as a negative control.
# Pre-treatment lice counts were conducted on Day −1 and used to allocate sheep to treatment groups. Post-treatment lice counts were conducted 7, 14, 21, 42, 84 and 140 days±1-day post-treatment. Lice counts were performed as discussed in Example 1.
# [4] = system: sheep body lice (Bovicola ovis), benzoyl phenyl urea (IGR) resistant; test: Efficacy long wool lice study, single subcutaneous injection, Merino ewes with 7 months wool growth; settings: for Geometric efficacy (%) Day 7 / Geometric efficacy (%) Day 14 / Geometric efficacy (%) Day 21 / Geometric efficacy (%) Day 42 / Geometric efficacy (%) Day 84 / Geometric efficacy (%) Day 140: long wool sheep, Henderson-Tilton
# [5] = system: sheep body lice (Bovicola ovis), diazinon resistant; test: Off-shears/short wool lice efficacy study, single subcutaneous dose, Merino sheep; format: in vivo; settings: for Sheep Body Lice Efficacy Based on Geometric Means Day 7: Day 7 post-treatment; for Sheep Body Lice Efficacy Based on Geometric Means Day 14: Day 14 post-treatment; for Sheep Body Lice Efficacy Based on Geometric Means Day 21: Day 21 post-treatment; for Sheep Body Lice Efficacy Based on Geometric Means Day 41/42: Day 41/42 post-treatment; for Sheep Body Lice Efficacy Based on Geometric Means Day 84: Day 84 post-treatment; for Sheep Body Lice Efficacy Based on Geometric Means Day 140: Day 140 post-treatment
# Description: In this study the efficacy of fluralaner when administered once subcutaneously at doses of 1 and 2 mg/kg body weight within 1 week prior to shearing, within 24 hours after shearing and 6 weeks after shearing against sheep body lice (Bovicola ovis) infestation on Merino sheep was evaluated.
# Fluralaner was administered to sheep in Groups 2 and 3 seven days pre-shearing, Groups 4 and 5 within 24 hours after shearing and Groups 6 and 7 forty-two days post-shearing at either 1 mg/kg (Group 2, 4 and 6) or 2 mg/kg (Group 3, 5 and 7). Group 1 was left untreated as a negative control. All sheep were shorn on Day 0.
# Lice counts were conducted on all sheep on Day −8 to −7 for allocation. Pre-treatment lice counts were conducted on Groups 2 and 3 on Day −8 to −7 (i.e. allocation counts), on Group 4 and 5 on Day −1 (pre-shearing) and on Group 6 and 7 on Day 41 (post-shearing). Post-treatment lice counts were conducted 7, 14, 21, 42, 84 and 140 days±1-day post-treatment. Group 1 was counted on each day that a lice count was conducted on a treated group for comparison purposes. Lice counts were performed as described in Example 1.
# [6] = 1 mg/kg s.c., treated 7 days pre-shearing
# [7] = 1 mg/kg s.c., treated 42 days post-shearing
# [8] = 1 mg/kg s.c., treated within 24 hours after shearing
# [9] = 2 mg/kg s.c., treated 7 days pre-shearing
# [10] = 2 mg/kg s.c., treated 42 days post-shearing
# [11] = 2 mg/kg s.c., treated within 24 hours after shearing
structure (smiles),measurement,setting,value
"Cc1cc(C2=NOC(c3cc(Cl)cc(Cl)c3)(C(F)(F)F)C2)ccc1C(=O)NCC(=O)NCC(F)(F)F (centres unmarked) [Fluralaner, 4-[5-(3,5-dichlorophenyl)-5-trifluoromethyl-4,5-dihydroisoxazol-3-yl]-2-methyl-N-[(2,2,2-trifluoro-ethylcarbamoyl)-methyl]-benzamide]",efficacy against the biting lice B. bovis,[1]; Day 7,91.74%
same,efficacy against the biting lice B. bovis,[1]; by Day 14,100%
same,lice found on treated cattle,[1]; from Day 21 until Day 56,no lice of any species found
same,efficacy (based on Arithmetic Means) against the sucking lice,[2]; Day 7,97.69%
same,efficacy (based on Arithmetic Means) against the sucking lice,[2]; Day 14,99.89%
same,lice found on treated cattle,[2]; from Day 21 until Day 56,no lice of any species found
same,time until activity reached the required level,[3]; 1.0 mg/kg dose rate,≤ 42 days post-treatment
same,Sheep Body Lice Efficacy Based on Geometric Means Day 7,[3]; 1 mg/kg s.c.,81.8%
same,Sheep Body Lice Efficacy Based on Geometric Means Day 14,[3]; 1 mg/kg s.c.,97.2%
same,Sheep Body Lice Efficacy Based on Geometric Means Day 21,[3]; 1 mg/kg s.c.,99.6%
same,Sheep Body Lice Efficacy Based on Geometric Means Day 42,[3]; 1 mg/kg s.c.,100.0%
same,Sheep Body Lice Efficacy Based on Geometric Means Day 84,[3]; 1 mg/kg s.c.,100.0%
same,Sheep Body Lice Efficacy Based on Geometric Means Day 140,[3]; 1 mg/kg s.c.,100.0%
same,time until efficacy reached the required level,[3]; 2.0 mg/kg dose rate,≤ 14 days post-treatment
same,Sheep Body Lice Efficacy Based on Geometric Means Day 7,[3]; 2 mg/kg s.c.,95.2%
same,Sheep Body Lice Efficacy Based on Geometric Means Day 14,[3]; 2 mg/kg s.c.,100.0%
same,Sheep Body Lice Efficacy Based on Geometric Means Day 21,[3]; 2 mg/kg s.c.,100.0%
same,Sheep Body Lice Efficacy Based on Geometric Means Day 42,[3]; 2 mg/kg s.c.,100.0%
same,Sheep Body Lice Efficacy Based on Geometric Means Day 84,[3]; 2 mg/kg s.c.,100.0%
same,Sheep Body Lice Efficacy Based on Geometric Means Day 140,[3]; 2 mg/kg s.c.,100.0%
same,Geometric efficacy (%) Day 7,[4]; 1.0 mg/kg s.c. once,99.4%
same,Geometric efficacy (%) Day 14,[4]; 1.0 mg/kg s.c. once,99.9%
same,Geometric efficacy (%) Day 21,[4]; 1.0 mg/kg s.c. once,100.0%
same,Geometric efficacy (%) Day 42,[4]; 1.0 mg/kg s.c. once,100.0%
same,Geometric efficacy (%) Day 84,[4]; 1.0 mg/kg s.c. once,100.0%
same,Geometric efficacy (%) Day 140,[4]; 1.0 mg/kg s.c. once,100.0%
same,Geometric efficacy (%) Day 7,[4]; 2.0 mg/kg s.c. once,99.6%
same,Geometric efficacy (%) Day 14,[4]; 2.0 mg/kg s.c. once,100.0%
same,Geometric efficacy (%) Day 21,[4]; 2.0 mg/kg s.c. once,100.0%
same,Geometric efficacy (%) Day 42,[4]; 2.0 mg/kg s.c. once,100.0%
same,Geometric efficacy (%) Day 84,[4]; 2.0 mg/kg s.c. once,100.0%
same,Geometric efficacy (%) Day 140,[4]; 2.0 mg/kg s.c. once,100.0%
same,Geometric efficacy (%) Day 7,[4]; 3.0 mg/kg s.c. once,99.6%
same,Geometric efficacy (%) Day 14,[4]; 3.0 mg/kg s.c. once,100.0%
same,Geometric efficacy (%) Day 21,[4]; 3.0 mg/kg s.c. once,100.0%
same,Geometric efficacy (%) Day 42,[4]; 3.0 mg/kg s.c. once,100.0%
same,Geometric efficacy (%) Day 84,[4]; 3.0 mg/kg s.c. once,100.0%
same,Geometric efficacy (%) Day 140,[4]; 3.0 mg/kg s.c. once,100.0%
same,treatment related adverse events or health problems,"[4]; sheep, 1, 2 and 3 mg/kg s.c., throughout the duration of the trial",No treatment related adverse events or health problems occurred
same,Sheep Body Lice Efficacy Based on Geometric Means Day 7,[5]; [6],93.9%
same,Sheep Body Lice Efficacy Based on Geometric Means Day 14,[5]; [6],97.7%
same,Sheep Body Lice Efficacy Based on Geometric Means Day 21,[5]; [6],99.7%
same,Sheep Body Lice Efficacy Based on Geometric Means Day 41/42,[5]; [6],100.0%
same,Sheep Body Lice Efficacy Based on Geometric Means Day 84,[5]; [6],100.0%
same,Sheep Body Lice Efficacy Based on Geometric Means Day 140,[5]; [6],100.0%
same,Sheep Body Lice Efficacy Based on Geometric Means Day 7,[5]; [7],94.4%
same,Sheep Body Lice Efficacy Based on Geometric Means Day 14,[5]; [7],99.5%
same,Sheep Body Lice Efficacy Based on Geometric Means Day 21,[5]; [7],100.0%
same,Sheep Body Lice Efficacy Based on Geometric Means Day 41/42,[5]; [7],100.0%
same,Sheep Body Lice Efficacy Based on Geometric Means Day 84,[5]; [7],100.0%
same,Sheep Body Lice Efficacy Based on Geometric Means Day 140,[5]; [7],100.0%
same,Sheep Body Lice Efficacy Based on Geometric Means Day 7,[5]; [8],39.5%
same,Sheep Body Lice Efficacy Based on Geometric Means Day 14,[5]; [8],83.1%
same,Sheep Body Lice Efficacy Based on Geometric Means Day 21,[5]; [8],98.8%
same,Sheep Body Lice Efficacy Based on Geometric Means Day 41/42,[5]; [8],99.9%
same,Sheep Body Lice Efficacy Based on Geometric Means Day 84,[5]; [8],100.0%
same,Sheep Body Lice Efficacy Based on Geometric Means Day 140,[5]; [8],100.0%
same,time until efficacy reached the required level (no lice detected),"[5]; 2.0 mg/kg dose rate, all wool lengths except off-shears",≤ 14 days post-treatment
same,Sheep Body Lice Efficacy Based on Geometric Means Day 7,[5]; [9],96.7%
same,Sheep Body Lice Efficacy Based on Geometric Means Day 14,[5]; [9],100.0%
same,Sheep Body Lice Efficacy Based on Geometric Means Day 21,[5]; [9],100.0%
same,Sheep Body Lice Efficacy Based on Geometric Means Day 41/42,[5]; [9],100.0%
same,Sheep Body Lice Efficacy Based on Geometric Means Day 84,[5]; [9],100.0%
same,Sheep Body Lice Efficacy Based on Geometric Means Day 140,[5]; [9],100.0%
same,Sheep Body Lice Efficacy Based on Geometric Means Day 7,[5]; [10],96.8%
same,Sheep Body Lice Efficacy Based on Geometric Means Day 14,[5]; [10],100.0%
same,Sheep Body Lice Efficacy Based on Geometric Means Day 21,[5]; [10],100.0%
same,Sheep Body Lice Efficacy Based on Geometric Means Day 41/42,[5]; [10],100.0%
same,Sheep Body Lice Efficacy Based on Geometric Means Day 84,[5]; [10],100.0%
same,Sheep Body Lice Efficacy Based on Geometric Means Day 140,[5]; [10],100.0%
same,Sheep Body Lice Efficacy Based on Geometric Means Day 7,[5]; [11],86.6%
same,Sheep Body Lice Efficacy Based on Geometric Means Day 14,[5]; [11],97.1%
same,Sheep Body Lice Efficacy Based on Geometric Means Day 21,[5]; [11],99.2%
same,Sheep Body Lice Efficacy Based on Geometric Means Day 41/42,[5]; [11],99.4%
same,Sheep Body Lice Efficacy Based on Geometric Means Day 84,[5]; [11],99.9%
same,Sheep Body Lice Efficacy Based on Geometric Means Day 140,[5]; [11],100.0%
same,viable lice eggs,"[5]; 1 and 2 mg/kg, all three treatment times, out to 140 days post-treatment",no viable lice eggs were detected
